For 30 molecules, inhibition results are on record in patent US20140243335A1, “SUBSTITUTED HYDOXAMIC ACIDS AND USES THEREOF” (Millennium Pharmaceuticals, Inc., priority 2010, published 2014).

One may read the inhibition as the relative decrease from the control value, in per cent.

This test concerns the target T1, purified human HDAC6 (Homo sapiens, UniProt Q9UBN7).
T1 construct: purchased BPS Bioscience 5006
T1 sequence (Q9UBN7 1-1215): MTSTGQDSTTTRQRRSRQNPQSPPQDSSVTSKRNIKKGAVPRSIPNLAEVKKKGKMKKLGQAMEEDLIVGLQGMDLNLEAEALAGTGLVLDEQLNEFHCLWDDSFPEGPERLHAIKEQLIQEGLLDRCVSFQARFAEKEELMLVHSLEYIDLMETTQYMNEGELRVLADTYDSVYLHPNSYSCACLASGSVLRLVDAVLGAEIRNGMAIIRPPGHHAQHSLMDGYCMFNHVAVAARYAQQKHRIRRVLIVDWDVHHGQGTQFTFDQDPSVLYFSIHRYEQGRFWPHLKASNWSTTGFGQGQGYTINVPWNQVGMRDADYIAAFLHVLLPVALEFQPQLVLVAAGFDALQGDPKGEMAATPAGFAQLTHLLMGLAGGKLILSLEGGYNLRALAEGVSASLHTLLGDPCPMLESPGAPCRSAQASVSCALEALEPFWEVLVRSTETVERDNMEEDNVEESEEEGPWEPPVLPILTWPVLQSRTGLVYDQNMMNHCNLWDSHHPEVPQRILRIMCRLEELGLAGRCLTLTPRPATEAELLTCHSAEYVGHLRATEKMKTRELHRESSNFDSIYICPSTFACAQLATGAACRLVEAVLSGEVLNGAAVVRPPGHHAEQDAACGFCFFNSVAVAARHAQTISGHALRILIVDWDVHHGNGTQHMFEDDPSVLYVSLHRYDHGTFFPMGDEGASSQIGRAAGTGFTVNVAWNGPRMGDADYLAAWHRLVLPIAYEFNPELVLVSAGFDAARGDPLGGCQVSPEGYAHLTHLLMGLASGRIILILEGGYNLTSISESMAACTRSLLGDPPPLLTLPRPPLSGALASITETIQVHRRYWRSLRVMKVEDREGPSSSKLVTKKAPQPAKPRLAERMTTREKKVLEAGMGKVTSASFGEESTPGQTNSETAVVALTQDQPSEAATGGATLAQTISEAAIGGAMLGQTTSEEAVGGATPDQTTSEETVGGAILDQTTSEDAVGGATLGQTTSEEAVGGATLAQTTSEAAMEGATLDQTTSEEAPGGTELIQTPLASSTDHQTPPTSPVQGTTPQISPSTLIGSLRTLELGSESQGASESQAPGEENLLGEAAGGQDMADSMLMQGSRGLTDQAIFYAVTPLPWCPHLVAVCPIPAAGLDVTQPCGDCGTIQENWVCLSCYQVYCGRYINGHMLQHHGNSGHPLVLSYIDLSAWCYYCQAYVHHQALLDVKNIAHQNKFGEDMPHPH
The test is described as follows: HDAC6 Enzyme Assay. It is filed as biochemical. The following applies: HDAC6 inhibition at a compound concentration of 0.412 μM; read-out: Percent Inhibition at 0.412 μM.
`O=C(NO)c1ccc2c(c1)CC(Oc1ccncc1)CC2` (stereo not drawn) [Compound I-86, N-hydroxy-7-(pyridin-4-yloxy)-5,6,7,8-tetrahydronaphthalene-2-carboxamide]: the inhibition at 0.412 µM was determined as 91%.

`O=C(NO)c1ccc2c(c1)CC(NS(=O)(=O)c1ccccc1)CC2` (stereo not drawn) [Compound I-96, N-hydroxy-7-[(phenylsulfonyl)amino]-5,6,7,8-tetrahydronaphthalene-2-carboxamide]: the inhibition at 0.412 µM is 92%. Then `CC(C)(C)CC(=O)NC1CCCc2cc(C(=O)NO)ccc21` (stereo not drawn) [Compound I-5, 5-[(3,3-dimethylbutanoyl)amino]-N-hydroxy-5,6,7,8-tetrahydronaphthalene-2-carboxamide], with 11%. Then `O=C(NO)c1ccc2c(c1)CC(c1cccc(C(F)(F)F)c1)CC2` (stereo not drawn) [Compound I-115, N-hydroxy-7-[3-(trifluoromethyl)phenyl]-5,6,7,8-tetrahydronaphthalene-2-carboxamide], with 81%; and `O=C(NO)c1ccc2c(c1)CCCC2NC(=O)c1cc(C(F)(F)F)cc(C(F)(F)F)c1` (stereo not drawn) [Compound I-12, 5-{[3,5-bis(trifluoromethyl)benzoyl]amino}-N-hydroxy-5,6,7,8-tetrahydronaphthalene-2-carboxamide], with 15%; and `O=C(NO)c1ccc2c(c1)CCC[C@@H]2NC(=O)c1cc(-c2ccc(F)cc2)n[nH]1` [Compound I-71, 3-(4-fluorophenyl)-N-{(1S)-6-[(hydroxyamino)carbonyl]-1,2,3,4-tetrahydronaphthalen-1-yl}-1H-pyrazole-5-carboxamide], with 60%. Regarding `CC1(C(=O)NC2CCc3ccc(C(=O)NO)cc3C2)CCNCC1` (stereo not drawn) [Compound I-114, N-{7-[(hydroxyamino)carbonyl]-1,2,3,4-tetrahydronaphthalen-2-yl}-4-methylpiperidine-4-carboxamide], the inhibition at 0.412 µM came out at 82%. Then `O=C(NO)c1ccc2c(c1)CC(Oc1ccc(Cl)cc1)CC2` (stereo not drawn) [Compound I-91, 7-(4-chlorophenoxy)-N-hydroxy-5,6,7,8-tetrahydronaphthalene-2-carboxamide], with 93%; and `Cc1oc(-c2ccccc2)cc1C(=O)NC1CCc2cc(C(=O)NO)ccc2C1` (stereo not drawn) [Compound I-59, N-{6-[(hydroxyamino)carbonyl]-1,2,3,4-tetrahydronaphthalen-2-yl}-2-methyl-5-phenyl-3-furamide], with 56%; and `CC(C)(C)OC(=O)N1CCC(C)(C(=O)Nc2cc(OC3CCc4cc(C(=O)NO)ccc4C3)ccn2)CC1` (stereo not drawn) [Compound I-214, tert-Butyl 4-({[4-({6-[(hydroxyamino)carbonyl]-1,2,3,4-tetrahydronaphthalen-2-yl}oxy)pyridin-2-yl]amino}carbonyl)-4-methylpiperidine-1-carboxylate], with 88%.

Take `O=C(NO)c1ccc2c(c1)CCC(Oc1ccncc1)C2` (stereo not drawn) [Compound I-108, N-hydroxy-6-(pyridin-4-yloxy)-5,6,7,8-tetrahydronaphthalene-2-carboxamide]: the inhibition at 0.412 µM was 95%.

As to `O=C(NO)c1ccc2c(c1)CCC(c1cccnc1)C2` (stereo not drawn) [Compound I-121, N-hydroxy-6-pyridin-3-yl-5,6,7,8-tetrahydronaphthalene-2-carboxamide], the inhibition at 0.412 µM stood at 80%. Regarding `Cc1oc(S(=O)(=O)N2CCCCC2)cc1C(=O)NC1CCCc2cc(C(=O)NO)ccc21` (stereo not drawn) [Compound I-37, N-{6-[(hydroxyamino)carbonyl]-1,2,3,4-tetrahydronaphthalen-1-yl}-2-methyl-5-(piperidin-1-ylsulfonyl)-3-furamide], the inhibition at 0.412 µM was 36%. As for `Cc1cc(C(=O)NC2CCc3cc(C(=O)NO)ccc3C2)c(C)n1Cc1cccs1` (stereo not drawn) [Compound I-48, N-{6-[(hydroxyamino)carbonyl]-1,2,3,4-tetrahydronaphthalen-2-yl}-2,5-dimethyl-1-(2-thienylmethyl)-1H-pyrrole-3-carboxamide], the inhibition at 0.412 µM turned out to be 62%. Consider `Cc1cc(C(=O)NC2CCc3cc(C(=O)NO)ccc3C2)c(C)o1` (stereo not drawn) [Compound I-50, N-{6-[(hydroxyamino)carbonyl]-1,2,3,4-tetrahydronaphthalen-2-yl}-2,5-dimethyl-3-furamide], for which the inhibition at 0.412 µM stood at 70%. Then `COc1ccc(C(C(=O)NC2CCCc3cc(C(=O)NO)ccc32)c2ccccc2)cc1` (stereo not drawn) [Compound I-41, N-hydroxy-5-{[(4-methoxyphenyl)(phenyl)acetyl]amino}-5,6,7,8-tetrahydronaphthalene-2-carboxamide], with 23%; and `O=C(NO)c1ccc2c(c1)CCC[C@@H]2NC(=O)c1cn2cc(Cl)ccc2n1` [Compound I-70, 6-chloro-N-{(1S)-6-[(hydroxyamino)carbonyl]-1,2,3,4-tetrahydronaphthalen-1-yl}imidazo[1,2-a]pyridine-2-carboxamide], with 63%; and `Nc1cc(C2CCc3ccc(C(=O)NO)cc3C2)ncn1` (stereo not drawn) [Compound I-98, 7-(6-aminopyrimidin-4-yl)-N-hydroxy-5,6,7,8-tetrahydronaphthalene-2-carboxamide], with 93%. Consider `O=C(NO)c1ccc2c(c1)CCC(c1cccc(C(F)(F)F)c1)C2` (stereo not drawn) [Compound I-113, N-hydroxy-6-[3-(trifluoromethyl)phenyl]-5,6,7,8-tetrahydronaphthalene-2-carboxamide], for which the inhibition at 0.412 µM worked out at 53%. For the molecule `COc1ccc(C2CCc3cc(C(=O)NO)ccc3C2)cc1` (stereo not drawn) [Compound I-105, N-hydroxy-6-(4-methoxyphenyl)-5,6,7,8-tetrahydronaphthalene-2-carboxamide], the inhibition at 0.412 µM worked out at 43%. In the case of `COc1cccc(C2CCc3ccc(C(=O)NO)cc3C2)c1` (stereo not drawn) [Compound I-119, N-hydroxy-7-(3-methoxyphenyl)-5,6,7,8-tetrahydronaphthalene-2-carboxamide], the inhibition at 0.412 µM was 74%. Regarding `O=C(NO)c1ccc2c(c1)CCC(c1ccc(Cl)cc1)C2` (stereo not drawn) [Compound I-101, 6-(4-chlorophenyl)-N-hydroxy-5,6,7,8-tetrahydronaphthalene-2-carboxamide], the inhibition at 0.412 µM is 55%. On to `CC(C)N1CCC(C)(C(=O)Nc2cc(OC3CCc4cc(C(=O)NO)ccc4C3)ccn2)CC1` (stereo not drawn) [Compound I-219, N-[4-({6-[(hydroxyamino)carbonyl]-1,2,3,4-tetrahydronaphthalen-2-yl}oxy)pyridin-2-yl]-1-isopropyl-4-methylpiperidine-4-carboxamide], for which the inhibition at 0.412 µM came to 90%. With `COc1ccccc1C1CCc2ccc(C(=O)NO)cc2C1` (stereo not drawn) [Compound I-116, N-hydroxy-7-(2-methoxyphenyl)-5,6,7,8-tetrahydronaphthalene-2-carboxamide], the inhibition at 0.412 µM was determined as 81%. Then `CN(C)Cc1cc(C(=O)NC2CCc3cc(C(=O)NO)ccc3C2)cc(C(F)(F)F)c1` (stereo not drawn) [Compound I-171, 6-{[3-[(dimethylamino)methyl]-5-(trifluoromethyl)benzoyl]amino}-N-hydroxy-5,6,7,8-tetrahydronaphthalene-2-carboxamide], with 77%; and `CN(C)C1CCc2ccc(C(=O)NO)cc2C1` (stereo not drawn) [Compound I-80, 7-(dimethylamino)-N-hydroxy-5,6,7,8-tetrahydronaphthalene-2-carboxamide], with 43%. Turning to `O=C(NO)c1ccc2c(c1)CC(Nc1ccc(Cl)cc1)CC2` (stereo not drawn) [Compound I-83, 7-[(4-chlorophenyl)amino]-N-hydroxy-5,6,7,8-tetrahydronaphthalene-2-carboxamide], the inhibition at 0.412 µM came to 86%.

As to `CC(C)(C)C(=O)Nc1cc(OC2CCc3cc(C(=O)NO)ccc3C2)ccn1` (stereo not drawn) [Compound I-150, 6-({2-[(2,2-dimethylpropanoyl)amino]pyridin-4-yl}oxy)-N-hydroxy-5,6,7,8-tetrahydronaphthalene-2-carboxamide], the inhibition at 0.412 µM turned out to be 86%. Then `O=C(NO)c1ccc2c(c1)CC(c1ccncc1)CC2` (stereo not drawn) [Compound I-88, N-hydroxy-7-pyridin-4-yl-5,6,7,8-tetrahydronaphthalene-2-carboxamide], with 89%; and `O=C(NO)c1ccc2c(c1)CCC(Oc1ccnc(NC(=O)C3CCNCC3)c1)C2` (stereo not drawn) [Compound I-225, N-[4-({6-[(hydroxyamino)carbonyl]-1,2,3,4-tetrahydronaphthalen-2-yl}oxy)pyridin-2-yl]piperidine-4-carboxamide], with 95%.
